pIC50: −log10 of the molar value.
System: 349418-098-R-PDC complex spheroid growth
Assay: Anticancer human tumor 349418-098-R-PDC patient-derived lung adenocarcinoma cell line growth inhibition [AhR]
Settings: for pIC50: curve of first compound; for viability, T/C: stronger effect = lower value
How it was run: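 Agents were dosed in half-log steps down from roughly clinical Cmax, or from 10 microM where Cmax was unknown, alone and with AhR antagonists. Read-out: percent test/control growth of tumor spheroids containing HUVEC and MSC stromal cells.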

[1] = second compound 0.1 µM, first compound 0.00949 µM
[2] = second compound 0.1 µM, first compound 0.03 µM
[3] = second compound 0.1 µM, first compound 0.0949 µM
[4] = second compound 0.1 µM, first compound 0.3 µM
[5] = second compound 0.316 µM, first compound 0.00949 µM
[6] = second compound 0.316 µM, first compound 0.03 µM
[7] = second compound 0.316 µM, first compound 0.0949 µM
[8] = second compound 0.316 µM, first compound 0.3 µM
[9] = second compound 1 µM, first compound 0.00949 µM
[10] = second compound 1 µM, first compound 0.03 µM
[11] = second compound 1 µM, first compound 0.0949 µM
[12] = second compound 1 µM, first compound 0.3 µM
[13] = second compound 3.16 µM, first compound 0.00949 µM
[14] = second compound 3.16 µM, first compound 0.03 µM
[15] = second compound 3.16 µM, first compound 0.0949 µM
[16] = second compound 3.16 µM, first compound 0.3 µM
[17] = second compound 10 µM, first compound 0.00949 µM
[18] = second compound 10 µM, first compound 0.03 µM
[19] = second compound 10 µM, first compound 0.0949 µM
[20] = second compound 10 µM, first compound 0.3 µM
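Also: spheroids exposed to agents for seven days before luminescence viability read.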
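For viability, T/C in this document: spheroids also contain HUVEC endothelial cells and human MSC stroma.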

Compound: CC1COCCN1c1cc(C2(S(C)(=N)=O)CC2)nc(-c2ccnc3[nH]ccc23)n1 (stereo not given) + Cc1cncc(-c2nc(NCCc3c[nH]c4ccccc34)c3ncn(C(C)C)c3n2)c1
- pIC50 (second compound 0.1 µM): 5.27
- pIC50 (second compound 0.316 µM): 5.38
- pIC50 (second compound 1 µM): 5.37
- pIC50 (second compound 3.16 µM): > 7.50
- pIC50 (second compound 10 µM): > 7.50
- viability, T/C (second compound 0.1 µM, first compound 0.0316 µM): 90.9%
- viability, T/C (second compound 0.1 µM, first compound 0.1 µM): 97%
- viability, T/C (second compound 0.1 µM, first compound 0.316 µM): 93.9%
- viability, T/C (second compound 0.1 µM, first compound 1 µM): 99.3%
- viability, T/C (second compound 0.1 µM, first compound 3.16 µM): 75.3%
- viability, T/C (second compound 0.1 µM, first compound 10 µM): 20%
- viability, T/C (second compound 0.316 µM, first compound 0.0316 µM): 90.1%
- viability, T/C (second compound 0.316 µM, first compound 0.1 µM): 94.2%
- viability, T/C (second compound 0.316 µM, first compound 0.316 µM): 95.5%
- viability, T/C (second compound 0.316 µM, first compound 1 µM): 89.9%
- viability, T/C (second compound 0.316 µM, first compound 3.16 µM): 61.4%
- viability, T/C (second compound 0.316 µM, first compound 10 µM): 13.6%
- viability, T/C (second compound 1 µM, first compound 0.0316 µM): 78.7%
- viability, T/C (second compound 1 µM, first compound 0.1 µM): 72.9%
- viability, T/C (second compound 1 µM, first compound 0.316 µM): 85.2%
- viability, T/C (second compound 1 µM, first compound 1 µM): 73.4%
- viability, T/C (second compound 1 µM, first compound 3.16 µM): 61.9%
- viability, T/C (second compound 1 µM, first compound 10 µM): 15.7%
- viability, T/C (second compound 3.16 µM, first compound 0.0316 µM): 15.7%
- viability, T/C (second compound 3.16 µM, first compound 0.1 µM): 15.9%
- viability, T/C (second compound 3.16 µM, first compound 0.316 µM): 12.6%
- viability, T/C (second compound 3.16 µM, first compound 1 µM): 12.1%
- viability, T/C (second compound 3.16 µM, first compound 3.16 µM): 8.67%
- viability, T/C (second compound 3.16 µM, first compound 10 µM): 7.34%
- viability, T/C (second compound 10 µM, first compound 0.0316 µM): 2.06%
- viability, T/C (second compound 10 µM, first compound 0.1 µM): 2.37%
- viability, T/C (second compound 10 µM, first compound 0.316 µM): 2.46%
- viability, T/C (second compound 10 µM, first compound 1 µM): 2.04%
- viability, T/C (second compound 10 µM, first compound 3.16 µM): 2.07%
- viability, T/C (second compound 10 µM, first compound 10 µM): 2.16%

Compound: Nc1ncn(C2CC(O)C(CO)S2)c(=O)n1 (stereo not given) + Cc1cncc(-c2nc(NCCc3c[nH]c4ccccc34)c3ncn(C(C)C)c3n2)c1
- pIC50 (second compound 0.1 µM): 6.88
- pIC50 (second compound 0.316 µM): 6.88
- pIC50 (second compound 1 µM): > 9.02
- pIC50 (second compound 3.16 µM): 7.12
- pIC50 (second compound 10 µM): > 9.02
- viability, T/C (second compound 0.1 µM, first compound 0.000949 µM): 102%
- viability, T/C (second compound 0.1 µM, first compound 0.003 µM): 96.7%
- viability, T/C [1]: 90.8%
- viability, T/C [2]: 74.5%
- viability, T/C [3]: 59.3%
- viability, T/C [4]: 30.7%
- viability, T/C (second compound 0.316 µM, first compound 0.000949 µM): 88.6%
- viability, T/C (second compound 0.316 µM, first compound 0.003 µM): 93.7%
- viability, T/C [5]: 83%
- viability, T/C [6]: 71.4%
- viability, T/C [7]: 59.1%
- viability, T/C [8]: 31.8%
- viability, T/C (second compound 1 µM, first compound 0.000949 µM): 47.5%
- viability, T/C (second compound 1 µM, first compound 0.003 µM): 42.5%
- viability, T/C [9]: 38.9%
- viability, T/C [10]: 37.6%
- viability, T/C [11]: 30.4%
- viability, T/C [12]: 24%
- viability, T/C (second compound 3.16 µM, first compound 0.000949 µM): 70%
- viability, T/C (second compound 3.16 µM, first compound 0.003 µM): 86.3%
- viability, T/C [13]: 94.6%
- viability, T/C [14]: 73.6%
- viability, T/C [15]: 44.7%
- viability, T/C [16]: 30.6%
- viability, T/C (second compound 10 µM, first compound 0.000949 µM): 2.25%
- viability, T/C (second compound 10 µM, first compound 0.003 µM): 2.66%
- viability, T/C [17]: 2.49%
- viability, T/C [18]: 2.15%
- viability, T/C [19]: 2.02%
- viability, T/C [20]: 2.32%

Compound: O=C(C=Cn1cnc(-c2cc(C(F)(F)F)cc(C(F)(F)F)c2)n1)NNc1cnccn1 + Cc1cncc(-c2nc(NCCc3c[nH]c4ccccc34)c3ncn(C(C)C)c3n2)c1
- pIC50 (second compound 0.1 µM): 7.21
- pIC50 (second compound 0.316 µM): 7.10
- pIC50 (second compound 1 µM): 7.30
- pIC50 (second compound 3.16 µM): > 8.02
- pIC50 (second compound 10 µM): > 8.02
- viability, T/C [1]: 109%
- viability, T/C [2]: 76.7%
- viability, T/C [3]: 34.4%
- viability, T/C [4]: 10.9%
- viability, T/C (second compound 0.1 µM, first compound 0.949 µM): 7.84%
- viability, T/C (second compound 0.1 µM, first compound 3 µM): 4.75%
- viability, T/C [5]: 103%
- viability, T/C [6]: 89.4%
- viability, T/C [7]: 42.3%
- viability, T/C [8]: 11.7%
- viability, T/C (second compound 0.316 µM, first compound 0.949 µM): 7.07%
- viability, T/C (second compound 0.316 µM, first compound 3 µM): 4.9%
- viability, T/C [9]: 95.8%
- viability, T/C [10]: 69.8%
- viability, T/C [11]: 25.5%
- viability, T/C [12]: 9.9%
- viability, T/C (second compound 1 µM, first compound 0.949 µM): 9.14%
- viability, T/C (second compound 1 µM, first compound 3 µM): 5.61%
- viability, T/C [13]: 31.8%
- viability, T/C [14]: 20.6%
- viability, T/C [15]: 14.7%
- viability, T/C [16]: 8.17%
- viability, T/C (second compound 3.16 µM, first compound 0.949 µM): 7.95%
- viability, T/C (second compound 3.16 µM, first compound 3 µM): 5.5%
- viability, T/C [17]: 3.16%
- viability, T/C [18]: 2.76%
- viability, T/C [19]: 2.56%
- viability, T/C [20]: 2.42%
- viability, T/C (second compound 10 µM, first compound 0.949 µM): 1.78%
- viability, T/C (second compound 10 µM, first compound 3 µM): 1.96%
